Test [1] has as its system HIV-infected resting CD4+ T cells (rCD4). Put plainly: Lysis of HIV-infected resting CD4+ T cells (rCD4) by CD8+ T cells and NK cells (LDH activity). Type of test: cell-based, human. The following applies: 0, 1 and 10 μM, mono- or co-cultures of rCD4, CD4+, 24 and 48 h. The protocol:
It was investigated whether the Debio-1143-induced reversal of HIV-1 latency, by restoring HIV-1 protein production in rCD4, would permit viral peptide exposure with MHC on infected rCD4+ T cells and allow recognition and lysis by CD8+ T cells and/or NK cells.
Method: Human CD4+ T cells, CD8+ T cells and NK cells were isolated following manufacturer's instruction (beads coated with specific antibodies) from one blood donor (500 mL). Ninety percent of CD4+ T cells were infected with HIV-1 (JR-CSF) (1 μg of p24), incubated for 4 days to allow establishment of infection, and then treated with ART for 3 days. Suppression of replication was verified by p24 ELISA in supernatants. rCD4 were then isolated following manufacturer's instruction. Infected and ART-treated rCD4 were mixed with uninfected CD4+ T cells, CD8+ T cells and NK cells a 1:1 ratio (100,000 cells) for 24 and 48 in triplicate. Mono-culture of each cell populations were used as controls. DMSO or Debio-1143 (0, 1 and 10 μM) were added to mono- or co-cultures for 24 and 48 h. Cell killing was quantified by LDH activity.

Test [2] relates to latent HIV in resting CD4+ T-lymphocytes. The test can be described thus: HIV reactivation in resting CD4+ T-lymphocytes derived from ART-treated HIV patients (HIV RNA in supernatant, qPCR). Type of test: cell-based, human. Here is the method: The experiments of this example analyzed the ability of DEB10-1143 at reactivating latent HIV in resting CD4+ T-lymphocytes isolated from peripheral blood monocytic cells (PBMCs) derived from HIV patients currently under ART. Drug titration and kinetic studies were conducted. Debio-1143 was tested alone or in combination with ART.
Method: Resting CD4+ T cells were isolated using the EasySep™ Human Resting CD4+ T Cell Isolation Kit, which is designed to isolate resting CD4+ T cells from fresh or previously frozen PBMCs by immunomagnetic negative selection. The EasySep™ procedure involves labeling unwanted cells with antibody complexes and magnetic particles. The magnetically labeled cells are separated from the untouched desired cells by using an EasySep™ magnet and simply pouring or pipetting the desired cells into a new tube. Isolated resting CD4+ T cells (50,000 cells/50 μL) were treated in duplicate for 0, 24, 48 and 72 h with increasing concentrations of DEB10-1143 (0 to 20.5 μM) used alone or in combination with ART (20 μM TDF, 10 μM FTC and 1 μM Raltegravir). Amounts of virions released from cells were quantified at the indicated time points by quantifying HIV RNA levels (HIV RNA copies/mL) in supernatant of cell culture using one-step reverse transcriptase quantitative real-time PCR (ABI custom TaqMan Assays-by-Design) according to the manufacturer's instructions. Primers were 5-[…]-3 and 5-[…]-3, and MGB probe 5-FAM-[…]-Q-3, where FAM is 6-carboxyfluorescein.

Test [3] has the same test system. The test can be described thus: HIV-1 reactivation in resting CD4+ T cells from PBMCs of three ART-treated HIV patients (HIV RNA in supernatant). Type of test: cell-based, human. The text has this:
The experiments of this example analyzed the ability of IAPa, ICIs, or IAPa/ICI combinations at reactivating latent HIV in resting CD4+ T-lymphocytes isolated from peripheral blood monocytic cells (PBMCs) derived from HIV patients currently under ART.
Method: Resting CD4+ T cells were isolated from PBMCs of three ART-treated HIV patients by negative selection and magnetic separation (Easysep Mouse/Human Chimera Isolation Kits from […] technologies). Isolated resting CD4+ T cells (50,000 cells/50 μL) were treated in duplicate for 48h with different IAPa (1 μM) or ICI (10 μg/ml) in monotherapy, or the IAPa/ICI combinations. Amounts of virions released from cells were quantified at the indicated time points by quantifying HIV RNA levels (HIV RNA copies/mL) in supernatant of cell culture using one-step reverse transcriptase quantitative real-time PCR (ABI custom TaqMan Assays-by-Design) according to the manufacturer's instructions. Primers were 5-[…]-3 and 5-[…]-3, and MGB probe 5-FAM-[…]-Q-3, where FAM is 6-carboxyfluorescein.
The experiment was carried out using the same agents as described above for Example 8.1 (with the exception that no birinapant was used).

Test [4] relates to latent HIV-1 in 2D10 cells. The test can be described thus: HIV-1 reactivation in latent GFP-reporter 2D10 cells, Debio 1143 and other LRAs alone or in combination. The following applies: single agents, 48 h. It is filed as cell-based. The protocol: We compared the efficacy of Debio-1143 at reversing HIV-1 latency with that of other LRAs. We then analyzed the cytotoxicity of Debio-1143 with that of the other LRAs on 2D10 cells. Drug titration was conducted.
Methods: HIV-1 latent GFP-reporter 2D10 cells (100,000 cells/100 μL) were treated in triplicate for 48 h with increasing concentrations of either only Debio-1143 or the LRAs (2000 nM or 20000 nM), or with Debio 1143 (2000 nM or 20000 nM) in combination with the LRAs at a single predetermined concentration (see Table 2). HIV reactivation was analyzed via GFP expression by flow cytometry.

Test [5] deals with T1, BIRC2 (Homo sapiens, UniProt Q13490).
T1 construct: endogenous in cells; host or cells: 2D10, 293T and CD4+ T cells
Put plainly: BIRC2 (cIAP1) degradation by Western blotting. It is filed as cell-based. Here is the method: It was investigated whether Debio-1143 reverses HIV-1 latency by acting on the NF-κB pathway. Canonical and non-canonical NF-κB signaling pathways play an important role in the reactivation of latent HIV-1, implicating its regulation as an important therapeutic strategy for latency reversal.
Method: 2D10 (A) or 293T (B) and CD4+ T cells (C) cells were treated with DMSO, Debio-1143 (1 μM) and TNFα (10 ng/ml) for the indicated times and analyzed by Western blotting for BIRC2 and IkBα protein expression using antibodies specifically detecting human BIRC2, human IkBα, or human CypA, such as commercially available (e.g. from R&D Systems, Cell Signaling, Santa Cruz Biotechnology, or other sources).

T1 sequence (Q13490 whole entry): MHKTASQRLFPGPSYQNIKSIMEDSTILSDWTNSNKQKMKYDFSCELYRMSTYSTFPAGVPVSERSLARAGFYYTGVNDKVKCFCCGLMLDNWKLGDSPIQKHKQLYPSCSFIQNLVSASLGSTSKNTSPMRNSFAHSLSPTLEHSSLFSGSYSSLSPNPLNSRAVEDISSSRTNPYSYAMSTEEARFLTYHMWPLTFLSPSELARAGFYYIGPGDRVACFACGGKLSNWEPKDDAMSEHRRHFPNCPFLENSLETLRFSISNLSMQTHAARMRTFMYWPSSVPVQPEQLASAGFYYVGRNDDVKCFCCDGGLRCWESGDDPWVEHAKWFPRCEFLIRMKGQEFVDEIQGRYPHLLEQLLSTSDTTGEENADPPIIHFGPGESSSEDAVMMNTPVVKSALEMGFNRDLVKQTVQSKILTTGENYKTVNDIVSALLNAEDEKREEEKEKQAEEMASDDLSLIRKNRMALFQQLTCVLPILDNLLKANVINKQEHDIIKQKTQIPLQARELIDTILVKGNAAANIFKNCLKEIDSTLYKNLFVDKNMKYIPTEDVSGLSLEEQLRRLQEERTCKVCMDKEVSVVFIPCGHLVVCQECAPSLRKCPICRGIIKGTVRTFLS

As to `CN[C@@H](C)C(=O)N[C@H]1CN(C(=O)CC(C)C)CC[C@H]2CC[C@@H](C(=O)NC(c3ccccc3)c3ccccc3)N2C1=O` [Debio 1143, (5S,8S,10aR)-N-benzhydryl-5-((S)-2-(methylamino)propanamido)-3-(3-methylbutanoyl)-6-oxodecahydropyrrolo[1,2-a][1,5]diazocine-8-carboxamide], in test [1], the “cell killing (LDH activity)” value is “Low cell death was observed in all mono- and co-cultures except for the rCD4:CD8+ T cells co-culture”. For the same compound, the “influence of ART on the degree of latency reversal” value in test [2] (in combination with ART (20 μM TDF, 10 μM FTC, 1 μM Raltegravir)) is given as “did not influence”. The “time after which reactivation was already maximal” value in test [2] (resting CD4+ T cells from two HIV patients under ART) is on record as no more than 24 h. Also, the “reactivation of latent HIV (HIV RNA copies/mL in supernatant)” value in test [2] (resting CD4+ T cells from two HIV patients under ART, 0 to 20.5 μM, 0-72 h) is “possesses the capacity of reactivating latent HIV”. Further, the “latency reversal class (HIV RNA copies/ml in supernatant)” value in test [3] (IAPa 1 μM monotherapy (0.1% DMSO, no ICI), 48 h) was 1 (Between 501 and 1000 RNA copies/ml were classified as “1”); in test [3] (IAPa 1 μM with Control IgG1, 48 h) it was 1 (Between 501 and 1000 RNA copies/ml were classified as “1”); in test [3] (IAPa 1 μM with Control IgG2, 48 h), 1 (Between 501 and 1000 RNA copies/ml were classified as “1”). Further, the “HIV-1 latency reversal (GFP expression)” value in test [4] is recorded as “reversed HIV-1 latency”. Further, the “potency as LRA compared with other LRAs” value in test [4] is recorded as “one of the most potent LRA”. The “time of BIRC2 degradation” value in test [5] (1 μM, 2D10 and 293T cells) was less than 15 min. The BIRC2 degradation entry in test [5] (CD4+ T cells) is on record as “dose-dependent”.

Values taken from patent US20220016079A1, “COMBINATION TREATMENT OF HIV INFECTIONS” (priority 2018, published 2022).
